Here are results for eight compounds from patent US7691890B2, “Anti-viral uses of leflunomide products” (priority 1998, dated 2010).

Usually EC50 stands for the concentration needed to bring the measured effect to its halfway point. As a reminder, the EC90 is the concentration needed for an effect of 90%. A higher EC90 goes with weaker potency. What is called CC50 is the concentration at which the toxic effect on the cells reaches its halfway point. Low values mean greater toxicity to the cells, high ones lower toxicity to the cells.

The conditions of series [1]: cited from earlier work.
Series [2] deals with Influenza A (H1N1). In words: CPE inhibition test. Format: cell-based. The note with it: for CPE Inhibition test SI: Influenza A (H1N1), IC50 divided by EC50; for EC50: Influenza A virus, H1N1, MDCK, read-out: CPE Inhibition test EC50.
Series [3] has as its system Influenza A (H3N2). Kind of series: CPE inhibition test. Format: cell-based. The note with it: for CPE Inhibition test SI: Influenza A (H3N2), IC50 divided by EC50; for EC50: Influenza A virus, H3N2, MDCK, read-out: CPE Inhibition test EC50.
Series [4] has as its system Influenza B. In words: CPE inhibition test. Format: cell-based. The note with it: for EC50: Influenza B virus, MDCK, read-out: CPE Inhibition test EC50; for CPE Inhibition test SI: Influenza B, IC50 divided by EC50.
Series [5] relates to Adenovirus Type 1. In words: CPE inhibition test. Format: cell-based, Adenovirus type 1 (65089/Chicago). The note with it: IC50 divided by EC50.
For series [6], the system named is Measles Virus. Kind of series: microbe, parasite or virus in culture. The note with it: for CPE Inhibition test SI: IC50 divided by EC50. Format: cell-based, Measles virus (Chicago strain).
The subject of series [7] is Parainfluenza Type 3 Virus. Kind of series: organism not typed. Format: cell-based, parainfluenza type 3 virus (14702). The note with it: for CPE Inhibition test SI: IC50 divided by EC50.
The test system of series [8] is Respiratory Syncytial Virus A. Kind of series: microbe, parasite or virus in culture. Format: cell-based, Respiratory syncytial virus (RSV) (A2). The note with it: for CPE Inhibition test SI: IC50 divided by EC50.
Series [9] relates to Rhinovirus Type 5. Format: cell-based. The note with it: IC50 divided by EC50.
In series [10] the test system is Adenovirus Type 1. Kind of series: Neutral red uptake test. Format: cell-based, Adenovirus type 1 (65089/Chicago). The note with it: IC50 divided by EC50.
Series [11] concerns Measles Virus. In words: microbe, parasite or virus in culture. Format: cell-based, Measles virus (Chicago strain). The note with it: for Neutral Red Uptake test SI: IC50 divided by EC50.
In series [12] the test system is Parainfluenza Type 3 Virus. In words: organism not typed. Format: cell-based, parainfluenza type 3 virus (14702). The note with it: for Neutral Red Uptake test SI: IC50 divided by EC50.
Series [13] deals with Respiratory Syncytial Virus A. In words: microbe, parasite or virus in culture. Format: cell-based, Respiratory syncytial virus (RSV) (A2). The note with it: for Neutral Red Uptake test SI: IC50 divided by EC50.
The subject of series [14] is Rhinovirus Type 5. In words: Neutral red uptake test. The note with it: IC50 divided by EC50. Format: cell-based.
A further series relates to hepatitis B virus (HBV). In words: microbe, parasite or virus in culture. Format: cell-based. The note with it: for EC50 / EC90: Hepatitis B virus, 216 h; for EC90: HBV DNA, 9 day treatment.
The nature of series [15]: Toxicity to 2.2.15 cells by neutral red dye uptake. The note with it: human, 2.2.15 human liver cells. Format: cell-based.
Description: Toxicity of test compounds to cultures of 2.2.15 cells was also determined as follows. Four concentrations of each compound were assayed and compared to untreated control cultures. Toxicity was determined by the uptake of neutral red dye, as determined by absorbance at 510 nm relative to untreated cells.
The subject of series [16] is Influenza A (H1N1). Kind of series: Neutral red uptake test. The note with it: IC50 divided by EC50.
Series [17] concerns Influenza A (H3N2). In words: Neutral red uptake test. The note with it: IC50 divided by EC50.
Series [18] concerns Influenza B. Kind of series: Neutral red uptake test. The note with it: IC50 divided by EC50.
Series [19] relates to CMV pp65, 72 kD IE1, glycoprotein B (gB). Kind of series: Immunohistochemical staining of CMV proteins in infected HUVEC. Format: cell-based. The note with it: CMV VHL/E, 200 μM A771726 or 1 mM PFA.
Description: Slides were incubated in the presence of absence of the agents for various intervals, acetone-fixed, and stained by the immunoperoxidase method.
A further series has as its system CMV DNA. In words: Dot blot quantitation of viral DNA in CMV-infected cells. Format: cell-based. The note with it: CMV P8-infected HFF, 48 hours, 100 μM A771726 or 1 mM PFA; identical results in HUVEC (200 μM).
In another series the test system is CMV DNA polymerase. Format: biochemical. The note with it: extracts of VHL/E-infected HUVEC or P8-infected HFF, various concentrations.
Series [20] has as its system rat CMV (RCMV RA67, Maastricht strain). In words: Rat CMV infection of immunodeficient nude rats, tissue plaque assay. The note with it: RCMV i.p., leflunomide 15 mg/kg/day for 14 days, 14 days post-inoculation. Format: in vivo.
For series [21] the following is noted: in vivo; cited from earlier work.

Molecules are shown by their SMILES. Where two headings read alike, the source gives them in different places.

On to `Nc1ccn(C[C@@H](CO)OCP(=O)(O)O)c(=O)n1` [Cidofovir], for which the neutropenia entry in [1] (in vivo) is reported as “approximately 10 % of recipients”.

Turning to `Cc1nocc1C(=O)Nc1ccc(C(F)(F)F)cc1` [Compound 99-126, N-(4-trifluoromethylphenyl)-3-methylisoxazol-4-carboxamide], the “CPE Inhibition test SI” value is recorded as <3.2 in the series with Influenza A (H1N1) [2]; 0 in the series with Influenza A (H3N2) [3]; 1.2 in the series with Influenza B [4]; 0 in the series on Adenovirus Type 1 [5]; 6 with Measles Virus [6]; 0 in [7]. Further, the “CPE Inhibition test SI” value is on record as 0 in series [8] and 1 with Rhinovirus Type 5 [9]. Further, the EC50 in the series with Influenza A (H1N1) [2] was > 20 µM; in the series with Influenza A (H3N2) [3], > 200 µM; with Influenza B [4], 60 µM; in the series on hepatitis B virus (HBV) it was > 100 µM. Moreover, the “Neutral Red Uptake test SI” value is 0 in the series with Adenovirus Type 1 [10]; 2 in the series on Measles Virus [11]; 1 in series [12]; 0 in [13]; 0 with Rhinovirus Type 5 [14]; 1.0 in the series with Influenza A (H1N1) [16]. The “Neutral Red Uptake test SI” value in the series with Influenza A (H3N2) [17] and in the series with Influenza B [18] was 1.0 throughout. The EC90 with hepatitis B virus (HBV) (2.2.15 cells) is > 100 µM. In addition, the “anti-viral effect on HBV (in words)” value in the series on hepatitis B virus (HBV) (summary of Table 2) is listed as “some anti-viral effect”. Moreover, the CC50 in series [15] came out at 110 µM.

For the compound `Cc1oncc1C(=O)Nc1cccc(C(F)(F)F)c1` [Compound 99-127, N-(3-trifluoromethylphenyl)-5-methylisoxazol-4-carboxamide], the “CPE Inhibition test SI” value (with Influenza A (H1N1) [2]; in the series with Influenza A (H3N2) [3]; in the series on Influenza B [4]; in the series on Measles Virus [6]; in [7]; in series [8]) was 0 in each case. In addition, the EC50 in the series with Influenza A (H1N1) [2] was > 200 µM; in the series on Influenza A (H3N2) [3], > 200 µM; in the series with Influenza B [4], > 200 µM; with hepatitis B virus (HBV), 11 µM. In addition, the “Neutral Red Uptake test SI” value in the series on Measles Virus [11] was determined as 0; in series [12], 0; in series [13], 0; in the series on Influenza A (H1N1) [16], 1.0; with Influenza A (H3N2) [17], 1.0; in the series with Influenza B [18] it was 1.1. Moreover, in the series on hepatitis B virus (HBV) (HBV, 2.2.15 cells), the SI was 0.7. In the series on hepatitis B virus (HBV) (2.2.15 cells), the EC90 was determined as 96 µM. In addition, the CC50 in series [15] amounted to 67 µM.

In the case of `Nc1ncnc2c1ncn2C[C@@H](CO)OCP(=O)(O)O` [HPMPA, reference compound], the “CPE Inhibition test SI” value with Adenovirus Type 1 [5] is listed as 8. The “Neutral Red Uptake test SI” value in the series on Adenovirus Type 1 [10] was >20.

As for `O=C([O-])P(=O)(O)O.[Na+]` [PFA, sodium phosphonoformate], the “expression of CMV pp65 and IE1” value in [19] (24-48 hr pi) is recorded as “unimpeded”. Moreover, the “expression of CMV late structural glycoprotein B (gB)” value in [19] (96 hours pi) is given as “unable to express gB”. Further, the “quantity of viral DNA synthesized” value in the series with CMV DNA is “no detectable CMV DNA”. Moreover, the “CMV DNA polymerase activity” value in the series on CMV DNA polymerase is “complete inhibition at 1 mM”. For the same compound, in series [1] (intravenous foscarnet), the “frequency of each toxicity (renal dysfunction, hypomagnesemia, hypokalemia, hypocalcemia, seizures, fever, rash)” value is listed as “more than 5% of recipients”.

With `Cc1oncc1C(=O)Nc1ccc(C(F)(F)F)cc1` [leflunomide, N-(4-trifluoromethylphenyl)-5-methylisoxazol-4-carboxamide], the “viral load in salivary glands, lungs and spleens” value in series [20] is “significantly reduced viral load”. Also, in series [21], the “toxicity in animal studies” value is “liver and cardiac toxicity”.

With `NC(=O)c1ncn([C@@H]2O[C@H](CO)[C@@H](O)[C@H]2O)n1` [ribavirin, reference compound], the EC50 was 41 µM in the series on Measles Virus [6] (Measles morbillivirus, CV-1 cells, read-out: CPE Inhibition test EC50); 230 µM in series [7] (MA104, MA-104 cells, read-out: CPE Inhibition test EC50); 290 µM in series [8] (human respiratory syncytial virus, MA104, MA-104 cells, read-out: CPE Inhibition test EC50); 41 µM in the series on Measles Virus [11] (Measles morbillivirus, CV-1 cells, read-out: Neutral Red Uptake test EC50); 120 µM in [12] (MA104, MA-104 cells, read-out: Neutral Red Uptake test EC50); 82 µM in [13] (human respiratory syncytial virus, MA104, MA-104 cells, read-out: Neutral Red Uptake test EC50).

In the case of `O=c1ccn([C@@H]2O[C@H](CO)[C@@H](O)[C@H]2O)c(=O)[nH]1` [uridine], the concentration giving a half-maximal response (EC50) with hepatitis B virus (HBV) is > 100 µM. Moreover, the EC90 in the series with hepatitis B virus (HBV) (2.2.15 cells) was > 100 µM. Also, in series [15], the CC50 is > 100 µM.
